From the supplement of paper PMC10307832

Experiments:
Experiment in all cases: relative viability (nuclei count vs DMSO), 5 days (fraction); higher = more cells survive
[1] = compound: CN(C)C[C@@H]1CCn2cc(c3ccccc32)C2=C(C(=O)NC2=O)c2cn(c3ccccc23)CCO1 [Ruboxistaurin] + CC(=O)Nc1cccc(-n2c(=O)n(C3CC3)c(=O)c3c(Nc4ccc(I)cc4F)n(C)c(=O)c(C)c32)c1 [Trametinib] (partner 0.02 µM)
Summary of the method: (§1)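 Lung cancer cell lines were pin-tool dosed in 1536-well plates on the day after seeding, with either a lone drug or a fixed anchor-drug dose plus five library-drug doses (not always all listed) in √10 steps. Nuclei were counted on 4× images after 5 days. Relative viability is the ratio of treated-well to vehicle-well nuclei counts, with each value a median of duplicate plates.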

[2] = compound: CN(C)C[C@@H]1CCn2cc(c3ccccc32)C2=C(C(=O)NC2=O)c2cn(c3ccccc23)CCO1 [Ruboxistaurin] + CS(=O)(=O)N1CCN(Cc2cc3nc(-c4cccc5[nH]ncc45)nc(N4CCOCC4)c3s2)CC1 [Pictilisib] (partner 1 µM)
Summary of the method: as §1

[3] = compound: CN(C)C[C@@H]1CCn2cc(c3ccccc32)C2=C(C(=O)NC2=O)c2cn(c3ccccc23)CCO1 [Ruboxistaurin] + CC(=O)c1c(C)c2cnc(Nc3ccc(N4CCNCC4)cn3)nc2n(C2CCCC2)c1=O [Palbociclib] (partner 0.5 µM)
Summary of the method: as §1

[4] = compound: CN(C)C[C@@H]1CCn2cc(c3ccccc32)C2=C(C(=O)NC2=O)c2cn(c3ccccc23)CCO1 [Ruboxistaurin] + CS(=O)(=O)CCNCc1ccc(-c2ccc3ncnc(Nc4ccc(OCc5cccc(F)c5)c(Cl)c4)c3c2)o1 [Lapatinib] (partner 2 µM)
Summary of the method: as §1

[5] = compound: CN(C)C[C@@H]1CCn2cc(c3ccccc32)C2=C(C(=O)NC2=O)c2cn(c3ccccc23)CCO1 [Ruboxistaurin] + CCNC(=O)c1noc(-c2cc(C(C)C)c(O)cc2O)c1-c1ccc(CN2CCOCC2)cc1 [Luminespib] (partner 0.01 µM)
Summary of the method: as §1

Cell Line	relative viability ([1]; first compound 0.08 µM)	relative viability ([1]; first compound 0.8 µM)	relative viability ([1]; first compound 2.53 µM)	relative viability ([1]; first compound 8 µM)	relative viability ([2]; first compound 0.08 µM)	relative viability ([2]; first compound 0.8 µM)	relative viability ([2]; first compound 2.53 µM)	relative viability ([2]; first compound 8 µM)	relative viability ([3]; first compound 0.08 µM)	relative viability ([3]; first compound 0.8 µM)	relative viability ([3]; first compound 2.53 µM)	relative viability ([3]; first compound 8 µM)	relative viability ([4]; first compound 0.08 µM)	relative viability ([4]; first compound 0.8 µM)	relative viability ([4]; first compound 2.53 µM)	relative viability ([4]; first compound 8 µM)	relative viability ([5]; first compound 0.08 µM)	relative viability ([5]; first compound 0.8 µM)	relative viability ([5]; first compound 2.53 µM)	relative viability ([5]; first compound 8 µM)
HCC-78	0.886	0.711	0.738	0.912	0.198	0.245	0.195	0.174	0.509	0.47	0.497	0.501	0.745	0.717	0.774	0.944	–	–	–	–
HCC-366	0.393	0.331	0.349	0.321	0.237	0.116	0.151	0.137	0.401	0.354	0.392	0.328	1.12	0.988	1.02	1.01	–	–	–	–
HCC-827	0.555	0.499	0.517	0.533	0.993	0.866	1.08	1.27	0.529	0.478	0.621	0.489	0.243	0.191	0.184	0.165	0.748	0.708	0.627	0.612
HOP-62	0.401	0.33	0.361	0.361	0.732	0.755	0.535	0.546	0.516	0.462	0.471	0.458	0.995	0.978	0.997	1	0.964	0.892	0.989	1.01
IA-LM	–	–	–	–	0.389	0.271	0.381	0.323	–	–	–	–	0.751	–	1.07	0.789	–	–	–	–
LC-2-ad	0.953	0.877	0.928	0.984	0.481	0.347	0.495	0.286	0.469	0.424	0.45	0.532	1.1	0.889	1.02	1.02	1.22	0.989	1.01	1.1
LCLC-97TM1	0.207	0.141	0.203	0.154	0.221	–	0.161	0.127	0.217	0.199	0.235	0.227	1.1	–	1.6	1.05	0.769	0.815	0.741	0.675
LCLC-103H	0.703	0.621	0.633	0.678	0.632	0.611	0.511	0.533	0.446	0.49	0.446	0.451	–	–	–	–	1.02	0.791	0.934	0.808
LK-2	0.65	0.933	0.85	0.589	0.595	0.52	0.652	0.303	0.768	0.726	0.75	0.74	1.07	0.866	0.938	0.739	0.22	0.182	0.154	0.172
